Results reported in ChEMBL document CHEMBL4507300 (2021).

Key:
Conditions in all cases: Compound concentration 1000.0 nM
[1] = biological target: Cyclin-dependent kinase-like 2 (Homo sapiens) (UniProt Q92772)
[2] = biological target: Serine/threonine-protein kinase Sgk1 (Homo sapiens) (UniProt O00141)
[3] = tested on: Phosphatidylinositol 4,5-bisphosphate 3-kinase catalytic subunit alpha isoform (Homo sapiens), P42336 [M1043I]
[4] = tested on: Hepatocyte growth factor receptor (Homo sapiens), P08581 [Y1235D]
[5] = biological target: Citron Rho-interacting kinase (Homo sapiens) (UniProt O14578)
[6] = biological target: Serine/threonine-protein kinase MRCK alpha (Homo sapiens) (UniProt Q5VT25)
[7] = biological target: Activated CDC42 kinase 1 (Homo sapiens) (UniProt Q07912)
[8] = biological target: Mitogen-activated protein kinase 13 (Homo sapiens) (UniProt O15264)
[9] = biological target: LIM domain kinase 2 (Homo sapiens) (UniProt P53671)
LIM domain kinase 2 (Homo sapiens), sequence (P53671 whole entry, looked up, the tested form may be a part): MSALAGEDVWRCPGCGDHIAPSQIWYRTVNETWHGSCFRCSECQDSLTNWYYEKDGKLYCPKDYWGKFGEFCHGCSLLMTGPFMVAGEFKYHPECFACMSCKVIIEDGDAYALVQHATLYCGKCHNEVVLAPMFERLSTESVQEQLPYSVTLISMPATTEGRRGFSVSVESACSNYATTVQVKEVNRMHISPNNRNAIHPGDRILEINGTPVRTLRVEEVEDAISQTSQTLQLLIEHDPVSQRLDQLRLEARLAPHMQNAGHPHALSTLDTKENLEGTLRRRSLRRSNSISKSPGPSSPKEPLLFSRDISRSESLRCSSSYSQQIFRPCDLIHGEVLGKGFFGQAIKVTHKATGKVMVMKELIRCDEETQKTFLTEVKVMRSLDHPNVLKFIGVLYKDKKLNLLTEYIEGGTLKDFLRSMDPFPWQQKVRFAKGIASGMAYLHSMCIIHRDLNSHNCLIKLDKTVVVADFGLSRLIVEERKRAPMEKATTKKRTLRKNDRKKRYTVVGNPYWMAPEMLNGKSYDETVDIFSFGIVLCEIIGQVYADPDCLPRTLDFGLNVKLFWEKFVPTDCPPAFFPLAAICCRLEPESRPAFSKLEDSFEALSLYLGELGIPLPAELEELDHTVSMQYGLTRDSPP

[10] = biological target: Calcium/calmodulin-dependent protein kinase kinase 1 (Homo sapiens) (UniProt Q8N5S9)
[11] = biological target: Serine/threonine-protein kinase Sgk2 (Homo sapiens) (UniProt Q9HBY8)
[12] = biological target: Cyclin-dependent kinase 13 (Homo sapiens) (UniProt Q14004)
[13] = biological target: Serine/threonine-protein kinase BRSK1 (Homo sapiens) (UniProt Q8TDC3)
Serine/threonine-protein kinase BRSK1 (Homo sapiens), sequence (Q8TDC3 whole entry): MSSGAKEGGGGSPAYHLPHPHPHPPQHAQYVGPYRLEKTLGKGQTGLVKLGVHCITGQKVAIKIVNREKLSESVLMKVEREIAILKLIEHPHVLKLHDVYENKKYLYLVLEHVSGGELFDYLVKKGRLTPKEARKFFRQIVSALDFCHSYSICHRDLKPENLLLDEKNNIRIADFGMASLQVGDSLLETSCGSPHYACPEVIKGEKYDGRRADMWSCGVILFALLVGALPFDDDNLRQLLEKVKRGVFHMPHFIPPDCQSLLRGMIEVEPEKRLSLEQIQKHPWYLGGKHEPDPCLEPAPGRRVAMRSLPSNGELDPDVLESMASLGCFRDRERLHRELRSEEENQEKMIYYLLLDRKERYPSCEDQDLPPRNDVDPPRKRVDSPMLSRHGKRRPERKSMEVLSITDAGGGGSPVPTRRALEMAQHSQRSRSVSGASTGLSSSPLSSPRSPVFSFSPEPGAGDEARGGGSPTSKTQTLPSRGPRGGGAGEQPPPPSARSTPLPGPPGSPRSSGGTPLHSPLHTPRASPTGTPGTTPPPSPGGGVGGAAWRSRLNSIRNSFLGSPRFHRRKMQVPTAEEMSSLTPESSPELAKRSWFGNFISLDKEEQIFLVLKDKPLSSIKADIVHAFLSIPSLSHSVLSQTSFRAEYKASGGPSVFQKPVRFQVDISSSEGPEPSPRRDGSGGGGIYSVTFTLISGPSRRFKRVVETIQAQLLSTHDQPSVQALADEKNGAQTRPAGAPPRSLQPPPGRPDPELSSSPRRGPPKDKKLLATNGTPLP

[14] = tested on: Receptor-type tyrosine-protein kinase FLT3 (Homo sapiens), P36888 [D835Y]
[15] = biological target: Tyrosine-protein kinase Tec (Homo sapiens) (UniProt P42680)
[16] = biological target: Casein kinase I isoform gamma-2 (Homo sapiens) (UniProt P78368)
[17] = biological target: Transient receptor potential cation channel subfamily M member 6 (Homo sapiens) (UniProt Q9BX84)
[18] = biological target: Calcium/calmodulin-dependent protein kinase type IV (Homo sapiens) (UniProt Q16566)
[19] = biological target: Ephrin type-A receptor 7 (Homo sapiens) (UniProt Q15375)
[20] = biological target: Protein-tyrosine kinase 6 (Homo sapiens) (UniProt Q13882)
Protein-tyrosine kinase 6 (Homo sapiens), sequence (Q13882 whole entry, looked up): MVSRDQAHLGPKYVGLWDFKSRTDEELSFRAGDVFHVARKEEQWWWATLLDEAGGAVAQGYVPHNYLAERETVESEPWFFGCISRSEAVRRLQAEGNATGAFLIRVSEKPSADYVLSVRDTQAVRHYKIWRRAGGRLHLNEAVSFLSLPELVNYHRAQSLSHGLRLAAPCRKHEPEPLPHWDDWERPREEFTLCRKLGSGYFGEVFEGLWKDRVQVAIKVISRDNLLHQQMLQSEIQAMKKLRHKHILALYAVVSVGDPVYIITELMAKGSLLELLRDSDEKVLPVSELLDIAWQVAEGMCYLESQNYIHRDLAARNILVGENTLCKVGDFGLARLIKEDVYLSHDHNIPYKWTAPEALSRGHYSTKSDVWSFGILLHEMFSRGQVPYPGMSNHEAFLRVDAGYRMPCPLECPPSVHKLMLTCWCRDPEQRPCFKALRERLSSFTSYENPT

[21] = biological target: Serine/threonine-protein kinase PAK 2 (Homo sapiens) (UniProt Q13177)
Serine/threonine-protein kinase PAK 2 (Homo sapiens), sequence (Q13177 whole entry): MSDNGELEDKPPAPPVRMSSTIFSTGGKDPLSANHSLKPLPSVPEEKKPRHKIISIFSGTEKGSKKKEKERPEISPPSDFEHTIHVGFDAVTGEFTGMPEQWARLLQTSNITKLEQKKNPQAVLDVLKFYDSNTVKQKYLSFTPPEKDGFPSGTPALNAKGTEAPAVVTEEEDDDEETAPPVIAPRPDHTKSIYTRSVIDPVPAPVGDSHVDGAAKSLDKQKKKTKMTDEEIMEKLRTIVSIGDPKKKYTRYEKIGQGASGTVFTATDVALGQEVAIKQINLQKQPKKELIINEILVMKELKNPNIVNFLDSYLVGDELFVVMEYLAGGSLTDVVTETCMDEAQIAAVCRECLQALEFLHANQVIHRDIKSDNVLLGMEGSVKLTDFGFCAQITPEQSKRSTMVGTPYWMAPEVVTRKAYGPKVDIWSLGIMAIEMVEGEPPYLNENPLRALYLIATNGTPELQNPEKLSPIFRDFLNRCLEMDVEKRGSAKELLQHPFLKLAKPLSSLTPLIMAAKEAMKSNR

[22] = biological target: Dual specificity mitogen-activated protein kinase kinase 1 (Homo sapiens) (UniProt Q02750)
Dual specificity mitogen-activated protein kinase kinase 1 (Homo sapiens), sequence (Q02750 whole entry): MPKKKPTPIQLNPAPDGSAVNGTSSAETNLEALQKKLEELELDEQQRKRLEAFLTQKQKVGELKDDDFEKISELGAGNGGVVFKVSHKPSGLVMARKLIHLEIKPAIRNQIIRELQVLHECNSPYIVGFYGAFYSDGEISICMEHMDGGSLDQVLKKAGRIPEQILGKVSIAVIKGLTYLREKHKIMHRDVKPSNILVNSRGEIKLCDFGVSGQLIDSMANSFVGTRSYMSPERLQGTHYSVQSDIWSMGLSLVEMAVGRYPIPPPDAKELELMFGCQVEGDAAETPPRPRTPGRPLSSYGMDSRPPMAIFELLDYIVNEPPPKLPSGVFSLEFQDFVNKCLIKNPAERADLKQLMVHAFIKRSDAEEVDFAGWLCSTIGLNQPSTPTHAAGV

[23] = biological target: Mitogen-activated protein kinase kinase kinase 12 (Homo sapiens) (UniProt Q12852)
Mitogen-activated protein kinase kinase kinase 12 (Homo sapiens), sequence (Q12852 whole entry): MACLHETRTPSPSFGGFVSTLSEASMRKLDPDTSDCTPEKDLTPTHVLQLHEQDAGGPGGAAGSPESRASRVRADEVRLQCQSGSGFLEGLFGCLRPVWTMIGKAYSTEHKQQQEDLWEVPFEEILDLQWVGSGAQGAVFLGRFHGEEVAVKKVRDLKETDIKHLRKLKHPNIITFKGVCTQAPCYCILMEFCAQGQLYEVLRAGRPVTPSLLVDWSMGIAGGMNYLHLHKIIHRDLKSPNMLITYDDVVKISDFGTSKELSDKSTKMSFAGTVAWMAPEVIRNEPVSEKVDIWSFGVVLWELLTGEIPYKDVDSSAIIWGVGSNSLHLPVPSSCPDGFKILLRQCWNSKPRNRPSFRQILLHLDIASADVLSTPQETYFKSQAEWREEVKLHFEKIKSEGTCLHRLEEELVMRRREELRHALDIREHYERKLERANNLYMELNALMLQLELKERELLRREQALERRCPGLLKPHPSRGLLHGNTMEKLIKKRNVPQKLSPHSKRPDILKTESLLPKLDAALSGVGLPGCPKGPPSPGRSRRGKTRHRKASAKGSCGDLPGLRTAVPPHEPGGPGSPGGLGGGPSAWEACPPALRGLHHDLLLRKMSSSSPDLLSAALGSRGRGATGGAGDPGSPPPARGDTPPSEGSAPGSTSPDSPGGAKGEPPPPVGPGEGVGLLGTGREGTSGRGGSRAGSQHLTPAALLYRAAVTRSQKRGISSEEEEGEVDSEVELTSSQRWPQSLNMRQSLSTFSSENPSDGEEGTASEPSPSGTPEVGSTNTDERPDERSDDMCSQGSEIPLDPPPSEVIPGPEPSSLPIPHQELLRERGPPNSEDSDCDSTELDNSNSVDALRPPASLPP

[24] = biological target: Tyrosine-protein kinase Srms (Homo sapiens) (UniProt Q9H3Y6)
Tyrosine-protein kinase Srms (Homo sapiens), sequence (Q9H3Y6 whole entry): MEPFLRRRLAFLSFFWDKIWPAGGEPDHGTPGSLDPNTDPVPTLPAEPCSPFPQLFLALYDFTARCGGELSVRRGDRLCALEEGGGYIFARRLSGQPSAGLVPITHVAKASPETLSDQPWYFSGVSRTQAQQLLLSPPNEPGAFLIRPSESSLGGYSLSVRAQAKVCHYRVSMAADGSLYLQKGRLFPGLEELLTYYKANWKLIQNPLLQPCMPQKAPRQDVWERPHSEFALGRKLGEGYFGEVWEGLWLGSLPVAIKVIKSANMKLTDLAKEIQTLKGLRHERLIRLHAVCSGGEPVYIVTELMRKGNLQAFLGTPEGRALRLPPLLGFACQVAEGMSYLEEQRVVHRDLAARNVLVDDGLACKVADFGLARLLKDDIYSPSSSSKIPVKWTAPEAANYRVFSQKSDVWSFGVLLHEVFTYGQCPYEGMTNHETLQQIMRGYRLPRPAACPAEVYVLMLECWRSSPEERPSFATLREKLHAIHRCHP

[25] = biological target: Vascular endothelial growth factor receptor 3 (Homo sapiens) (UniProt P35916)
[26] = biological target: MAP kinase-activated protein kinase 2 (Homo sapiens) (UniProt P49137)
[27] = biological target: MAP kinase-interacting serine/threonine-protein kinase 1 (Homo sapiens) (UniProt Q9BUB5)
MAP kinase-interacting serine/threonine-protein kinase 1 (Homo sapiens), sequence (Q9BUB5 whole entry, looked up): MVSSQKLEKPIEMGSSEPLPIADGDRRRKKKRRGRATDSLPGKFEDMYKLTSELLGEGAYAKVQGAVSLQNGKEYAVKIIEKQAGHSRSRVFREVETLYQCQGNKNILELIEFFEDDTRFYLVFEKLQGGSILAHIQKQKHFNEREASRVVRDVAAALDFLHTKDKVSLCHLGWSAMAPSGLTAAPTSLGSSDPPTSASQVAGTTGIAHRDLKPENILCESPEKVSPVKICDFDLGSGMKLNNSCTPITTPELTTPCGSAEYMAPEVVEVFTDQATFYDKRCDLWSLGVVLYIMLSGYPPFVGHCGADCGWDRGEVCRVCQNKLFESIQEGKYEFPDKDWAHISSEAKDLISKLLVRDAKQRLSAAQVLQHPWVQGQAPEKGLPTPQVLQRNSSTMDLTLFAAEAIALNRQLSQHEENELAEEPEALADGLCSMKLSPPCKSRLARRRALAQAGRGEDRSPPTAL

[28] = biological target: Wee1-like protein kinase 2 (Homo sapiens) (UniProt P0C1S8)
[29] = biological target: Fibroblast growth factor receptor 2 (Homo sapiens) (UniProt P21802)
[30] = biological target: Tyrosine-protein kinase Lck (Homo sapiens) (UniProt P06239)
[31] = biological target: Casein kinase I isoform delta (Homo sapiens) (UniProt P48730)
Casein kinase I isoform delta (Homo sapiens), sequence (P48730 whole entry, looked up, canonical isoform): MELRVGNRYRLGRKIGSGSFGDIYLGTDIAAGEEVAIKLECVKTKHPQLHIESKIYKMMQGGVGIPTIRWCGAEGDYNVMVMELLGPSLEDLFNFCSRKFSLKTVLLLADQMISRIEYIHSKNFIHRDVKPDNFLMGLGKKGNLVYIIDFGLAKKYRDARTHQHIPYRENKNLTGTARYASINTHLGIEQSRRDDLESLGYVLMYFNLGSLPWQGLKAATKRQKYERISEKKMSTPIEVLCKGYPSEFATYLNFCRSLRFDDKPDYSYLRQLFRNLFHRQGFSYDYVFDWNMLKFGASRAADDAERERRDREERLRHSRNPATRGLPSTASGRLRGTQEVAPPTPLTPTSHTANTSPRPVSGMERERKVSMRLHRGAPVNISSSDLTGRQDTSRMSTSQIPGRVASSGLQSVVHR

[32] = tested on: Epidermal growth factor receptor (Homo sapiens), P00533 [UNDEFINED MUTATION]
[33] = biological target: Homeodomain-interacting protein kinase 4 (Homo sapiens) (UniProt Q8NE63)
[34] = biological target: Phosphatidylinositol 4-kinase beta (Homo sapiens) (UniProt Q9UBF8)
[35] = biological target: Serine/threonine-protein kinase 35 (Homo sapiens) (UniProt Q8TDR2)
[36] = biological target: Tyrosine-protein kinase SYK (Homo sapiens) (UniProt P43405)
[37] = biological target: Ephrin type-A receptor 3 (Homo sapiens) (UniProt P29320)
[38] = biological target: Ankyrin repeat and protein kinase domain-containing protein 1 (Homo sapiens) (UniProt Q8NFD2)
[39] = biological target: Mitogen-activated protein kinase kinase kinase kinase 2 (Homo sapiens) (UniProt Q12851)
[40] = biological target: cAMP-dependent protein kinase catalytic subunit PRKX (Homo sapiens) (UniProt P51817)
[41] = biological target: Phosphatidylinositol 4,5-bisphosphate 3-kinase catalytic subunit gamma isoform (Homo sapiens) (UniProt P48736)
[42] = biological target: Protein kinase C epsilon type (Homo sapiens) (UniProt Q02156)
[43] = biological target: Calcium/calmodulin-dependent protein kinase type II subunit beta (Homo sapiens) (UniProt Q13554)
[44] = biological target: Serine/threonine-protein kinase Nek7 (Homo sapiens) (UniProt Q8TDX7)
[45] = biological target: Vascular endothelial growth factor receptor 2 (Homo sapiens) (UniProt P35968)

Measured: residual activity

COc1cccc(CNC(=O)c2nc3scc(COCc4ccc(C(=O)O)cc4)c3c(=O)[nH]2)c1 [T-26c]
inactive: [1] 66.8% | [2] 93.4% | [3] 100% | [4] 100% | [5] 100% | [6] 100% | [7] 89.6% | [8] 100% | [9] 96.2% | [10] 100% | [11] 84.9% | [12] 67.6% | [13] 100% | [14] 94.3% | [15] 86% | [16] 97.2% | [17] 81.8% | [18] 100% | [19] 86.5% | [20] 82.5% | [21] 100% | [22] 73.5% | [23] 58.2% | [24] 78.3% | [25] 100% | [26] 64.3% | [27] 83.1% | [28] 96.9% | [29] 100% | [30] 100% | [31] 100% | [32] 66.1% | [33] 94.3% | [34] 59.9% | [35] 93.6% | [36] 100% | [37] 91.3% | [38] 70.9% | [39] 83% | [40] 100% | [41] 76.8% | [42] 62% | [43] 96.8% | [44] 100% | [45] 70%
